Results on eleven compounds are retold here after ChEMBL document CHEMBL1201862, “PubChem BioAssay data set” (2004).

SMILES strings stand for the structures.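 Dose response: 5 concentrations. Exposure: 48 h. Format: 96-well plates. Endpoint: linear interpolation; highest concentration if not reached. GI50 = concentration required for 50% inhibition of growth.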 Calls of active or inactive are those of the source. No stated cut-off is given here; in the data, active = GI50 up to about 1.1 µM and inactive = higher.

Common to all, as to test: NCI anticancer screen, dose series, 48 h
Experiment [1] relates to IGROV-1.
Experiment [2] has as its system BT-549.
In experiment [3] the test system is MDA-MB-435.
In experiment [4] the test system is Malme-3M.
Experiment [5] deals with SK-OV-3.
The subject of experiment [6] is HCT-116.
Experiment [7] relates to HOP-62.
Experiment [8] concerns HT-29.
Experiment [9] has as its system 786-0.
Experiment [10] relates to U-251.
The subject of experiment [11] is LOX IMVI.
Experiment [12] relates to A498.
Experiment [13] has as its system CAKI-1.
The test system of experiment [14] is OVCAR-5.
Experiment [15] deals with M14.
Experiment [16] deals with COLO 205.
The test system of experiment [17] is RXF 393.
Experiment [18] has as its system HL-60.
The test system of experiment [19] is Hs-578T.
For experiment [20], the system named is T47D.

With `CCC/C(Cl)=N\OC(=O)Nc1ccc(F)c([N+](=O)[O-])c1`, the GI50 in experiment [1] is 15.3 µM (inactive); in experiment [2], 10.2 µM (inactive); in experiment [3], 16.2 µM (inactive); in experiment [4], 10.9 µM (inactive); in [5], 24.6 µM (inactive); in experiment [6], 26.2 µM (inactive). Besides, the GI50 in experiment [7] is 18.4 µM (inactive); in experiment [8], 20.1 µM (inactive); in experiment [9] it was 16.8 µM (inactive); in experiment [10], 18.3 µM (inactive); in experiment [11] it was 21.9 µM (inactive); in [12], 21.5 µM (inactive). The GI50 in experiment [13] is 4.3 µM (inactive); in experiment [14], 20.4 µM (inactive); in experiment [15], 14.7 µM (inactive); in experiment [16], 3.54 µM (inactive).

On to `CCOC(=O)/C(=C\NCC(O)c1ccccc1)c1nc2ccccc2[nH]1` (stereo unspecified), for which the GI50 in [1] was 20.1 µM (inactive); in experiment [2], 29.9 µM (inactive); in experiment [3], 20.9 µM (inactive); in experiment [17], 27.4 µM (inactive); in experiment [4] it was 25.6 µM (inactive); in experiment [5] it was 31.8 µM (inactive). In addition, the GI50 is 28.6 µM (inactive) in experiment [6]; 13.6 µM (inactive) in experiment [18]; 43.5 µM (inactive) in experiment [7]; 21.5 µM (inactive) in experiment [8]; 20.5 µM (inactive) in experiment [19]; 27.5 µM (inactive) in experiment [9]. Besides, the GI50 in [11] is 19.5 µM (inactive); in experiment [12] it was 20.1 µM (inactive); in [13], 32.4 µM (inactive); in [14] it was 26.4 µM (inactive); in experiment [15], 30.4 µM (inactive); in experiment [16], 16.7 µM (inactive).

In the case of `NC(CCCCNC(=O)CNC(=O)OCc1ccccc1)C(=O)NC(CCCCNC(=O)CNC(=O)OCc1ccccc1)C(=O)NC(CCCCNC(=O)CNC(=O)OCc1ccccc1)C(=O)NC(CCCCNC(=O)CNC(=O)OCc1ccccc1)C(=O)NC(CCCCNC(=O)CNC(=O)OCc1ccccc1)C(=O)NC(CCCCNC(=O)CNC(=O)OCc1ccccc1)C(=O)O` (stereo unspecified), the GI50 in experiment [1], in [2], in [3], in [4], in experiment [6] and in experiment [18] was > 75 µM (inactive) in each case. Besides, the GI50 in [7], in experiment [8], in experiment [20], in experiment [9], in experiment [10] and in [11] was > 75 µM (inactive) in each case. The GI50 in [12], in experiment [13], in [14] and in experiment [15] was > 75 µM (inactive) throughout.

Regarding `COc1cc2c(cc1OC)C1CCc3ccccc3CN1CC2` (stereo unspecified), the GI50 in [1], in experiment [3], in [17], in experiment [4], in [5] and in experiment [6] was > 100 µM (inactive) in each case. The GI50 in experiment [18], in experiment [7], in experiment [8], in experiment [19], in experiment [20] and in [9] was > 100 µM (inactive) in each case. Further, the GI50 in experiment [10], in experiment [11], in [12], in [13], in experiment [14] and in experiment [15] was > 100 µM (inactive) in each case. Further, the GI50 in experiment [16] is > 100 µM (inactive).

`Cc1cc(-c2nc3ccc(F)cc3s2)ccc1N`: the GI50 was 1.28 µM (inactive) in [1]; > 100 µM (inactive) in experiment [2]; > 100 µM (inactive) in experiment [3]; 49.8 µM (inactive) in experiment [17]; > 100 µM (inactive) in experiment [4]; > 100 µM (inactive) in [6]. Besides, the GI50 in [7] is > 100 µM (inactive); in experiment [8] it was > 100 µM (inactive); in experiment [19], 37.2 µM (inactive); in experiment [9] it was > 100 µM (inactive); in experiment [10], > 100 µM (inactive); in experiment [11], > 100 µM (inactive). For the same compound, the GI50 in experiment [12] was 2.55 µM (inactive); in experiment [13] it was > 100 µM (inactive); in experiment [14], > 100 µM (inactive); in experiment [15], > 100 µM (inactive); in experiment [16] it was > 100 µM (inactive).

Consider `CN(C)CCNC(=O)Cn1cnc2cccc([N+](=O)[O-])c2c1=O`, for which the GI50 in experiment [1], in experiment [3], in [17], in experiment [4], in [5] and in experiment [6] was > 100 µM (inactive) in each case. Further, the GI50 in [18], in [7], in [8], in experiment [19], in experiment [20] and in experiment [9] was > 100 µM (inactive) in each case. In addition, the GI50 in experiment [10], in [11], in experiment [12], in experiment [13], in [14] and in experiment [15] was > 100 µM (inactive) each time. For the same compound, the GI50 in experiment [16] was > 100 µM (inactive).

As for `C=C(Br)C(Br)(CCl)CCC(Cl)C(C)C.C=C(Cl)C(Br)(CCl)CCC(Cl)C(C)C` (stereo unspecified), the GI50 in [1] was 1.88 µM (inactive); in experiment [2] it was 1.7 µM (inactive); in experiment [3], 1.93 µM (inactive); in experiment [17], 2.18 µM (inactive); in experiment [4], 2.49 µM (inactive); in experiment [5], 2.3 µM (inactive). The GI50 is 1.75 µM (inactive) in [6]; 0.413 µM (active) in [18]; 2.21 µM (inactive) in experiment [7]; 1.41 µM (inactive) in experiment [8]; 2.49 µM (inactive) in experiment [19]; 1.36 µM (inactive) in experiment [9]. Further, the GI50 in experiment [10] is 1.75 µM (inactive); in experiment [11], 0.299 µM (active); in experiment [12], 17.7 µM (inactive); in [13], 2.81 µM (inactive); in experiment [14] it was 2.84 µM (inactive); in [15], 1.89 µM (inactive). Further, the GI50 in experiment [16] was 2.13 µM (inactive).

Consider `O=C(NNC(=S)Nc1ccccc1)c1csc(NC(=S)NC2CCCCC2)n1`, for which the GI50 in experiment [1] was 29.5 µM (inactive); in experiment [2] it was 33 µM (inactive); in experiment [3], 35.5 µM (inactive); in [4], > 100 µM (inactive); in [5] it was > 100 µM (inactive); in experiment [6], 67.1 µM (inactive). The GI50 in experiment [18] was > 100 µM (inactive); in [7], > 100 µM (inactive); in experiment [8], 15.6 µM (inactive); in experiment [20], 36.9 µM (inactive); in [9], 68.7 µM (inactive); in [10], 48.4 µM (inactive). For the same compound, the GI50 is 26.6 µM (inactive) in experiment [11]; > 100 µM (inactive) in [12]; > 100 µM (inactive) in experiment [13]; > 100 µM (inactive) in experiment [14]; 69.8 µM (inactive) in experiment [15]; 40.1 µM (inactive) in experiment [16].

For the compound `Nc1nc(Cl)cc(NCC2(CO)CC=CC2)n1`, the GI50 in experiment [1] was > 100 µM (inactive); in experiment [2] it was 33.1 µM (inactive); in [3], > 100 µM (inactive); in experiment [17], 33.1 µM (inactive); in experiment [4], > 100 µM (inactive); in experiment [5] it was > 100 µM (inactive). The GI50 is > 100 µM (inactive) in experiment [6]; > 100 µM (inactive) in [7]; > 100 µM (inactive) in [8]; > 100 µM (inactive) in experiment [19]; 47.1 µM (inactive) in experiment [20]; > 100 µM (inactive) in [9]. The GI50 in experiment [10], in experiment [11], in experiment [13], in experiment [14] and in experiment [16] was > 100 µM (inactive) throughout.

For `CCCC/N=C(/c1ccccc1)N1CCOCC1`, the GI50 in experiment [1] was > 100 µM (inactive); in experiment [2] it was > 100 µM (inactive); in experiment [3], > 100 µM (inactive); in [17], > 100 µM (inactive); in experiment [4], 57.9 µM (inactive); in [5], > 100 µM (inactive). Besides, the GI50 was > 100 µM (inactive) in experiment [6]; > 100 µM (inactive) in experiment [18]; > 100 µM (inactive) in experiment [7]; > 100 µM (inactive) in [8]; 87.1 µM (inactive) in [19]; > 100 µM (inactive) in experiment [9]. Besides, the GI50 in experiment [10], in [11], in experiment [12], in experiment [13], in experiment [14] and in experiment [15] was > 100 µM (inactive) in each case. For the same compound, the GI50 in [16] was > 100 µM (inactive).

With `CCCCOC(=O)NC(Nc1ccc(S(=O)(=O)Nc2ncccn2)cc1)(C(F)(F)F)C(F)(F)F`, the GI50 in experiment [1], in [3], in experiment [17], in experiment [4], in experiment [5] and in experiment [6] was > 100 µM (inactive) each time. Moreover, the GI50 in [18] is 89.7 µM (inactive); in [7], > 100 µM (inactive); in experiment [8], > 100 µM (inactive); in experiment [19], > 100 µM (inactive); in experiment [20], 37 µM (inactive); in experiment [9], > 100 µM (inactive). Besides, the GI50 in experiment [11], in experiment [12], in experiment [13], in experiment [14], in experiment [15] and in experiment [16] was > 100 µM (inactive) each time.
